Four compounds from patent US5753658A, “Quinolonecarboxylic acid derivatives” (Senju Pharmaceutical Co., Ltd., priority 1993, dated 1998) can be followed below.

Test [1] deals with P. aeruginosa IFO 13275. Description: Antibacterial test (minimum inhibitory concentration), method designated by Japan Society of Chemotherapy. It counts as cell-based. The following applies: Pseudomonas aeruginosa, IFO13275; P. aeruginosa IFO 13275, Gram's stain -, 10^6 cells/ml. The procedure: (§1) Antibacterial test was carried out according to the method designated by Japan Society of Chemotherapy in Chemotherapy, 29 (1): 76 (1981), the content of which is herein incorporated by reference. Each of the compounds obtained in Examples 2, 4 and 7 is tested. As a control drug, 1-ethyl-6,8-difluoro-1,4-dihydro-4-oxo-7-(1-piperazinyl)-3-quinolinecarboxylic acid was used, which is represented by formula IV when R1 is hydrogen, R3 is ethyl, R4 and R5 are hydrogen, and Z is piperazinyl.
(§2) The results are shown in Table 1 in terms of minimum inhibitory concentration (MIC).

Test [2] relates to S. aureus IFO 13276. Described as above. It counts as cell-based, Staphylococcus aureus. The following applies: for MIC: Staphylococcus aureus, IFO13276, S. aureus IFO 13276, Gram's stain +, 10^6 cells/ml. The procedure:
as §1, §2

For orientation: MIC means the lowest concentration that inhibits growth of the organism. A low value points to a more susceptible organism.

≈ marks a conversion by molar mass, not a printed value.

With `CCn1cc(C(=O)O)c(=O)c2cc(F)c(N3CCN(S(=O)(=O)c4ccc(F)cc4)CC3)c(F)c21` [Example 7, 1-Ethyl-6,8-difluoro-1,4-dihydro-4-oxo-7-[4-(4-fluorobenzenesulfonyl)-1-piperazinyl]-3-quinolinecarboxylic acid], the MIC was < 0.025 µg/mL in test [1] and 0.78 µg/mL (≈ 1.57 µM) in test [2].
Turning to `CCn1cc(C(=O)O)c(=O)c2cc(F)c(N3CCN(S(=O)(=O)c4ccc(N)cc4)CC3)c(F)c21` [Example 2, 1-Ethyl-6,8-difluoro-1,4-dihydro-4-oxo-7-[4-(4-aminobenzenesulfonyl)-1-piperazinyl]-3-quinolinecarboxylic acid], the MIC in test [1] is < 0.025 µg/mL; in test [2], 0.2 µg/mL (≈ 0.406 µM). Besides, in test [2] (against S. aureus, versus control drug), the “antibacterial activity compared with the control drug (in words)” value is “more potent antibacterial activity than the control drug”.
As to `CCn1cc(C(=O)O)c(=O)c2cc(F)c(N3CCN(S(=O)(=O)c4ccc(C)cc4)CC3)c(F)c21` [Example 4, 1-Ethyl-6,8-difluoro-1,4-dihydro-4-oxo-7-[4-(4-methylbenzenesulfonyl)-1-piperazinyl]-3-quinolinecarboxylic acid], the minimum inhibitory concentration (MIC) is < 0.025 µg/mL in test [1] and 0.78 µg/mL (≈ 1.59 µM) in test [2].
In the case of `CCn1cc(C(=O)O)c(=O)c2cc(F)c(N3CCNCC3)c(F)c21` [Control drug, 1-ethyl-6,8-difluoro-1,4-dihydro-4-oxo-7-(1-piperazinyl)-3-quinolinecarboxylic acid, reference compound], the MIC in test [1] is < 0.025 µg/mL; in test [2] it was 0.39 µg/mL (≈ 1.16 µM).
